# Literature values in patent US8512972B2, “Crystal of hypoxia inducible factor 1 alpha prolyl hydroxylase” (Akebia Therapeutics, Inc., priority 2006, dated 2013).
# Experiments:
# [1] = test system: GLUT1, heme oxygenase and nitric oxide synthase; conditions: neonatal rat cardiomyocytes
# [2] = test system: HIF protein in HT1080, PC12W and 3T3L1 cells; conditions: HT1080, PC12W and 3T3L1 cells in culture
# HIF protein = conditions: administered to rats
compound,measurement,setting,value
COC(=O)CNC(=O)C(=O)OC [dimethyloxalylglycine],"expression of GLUT1, heme oxygenase and nitric oxide synthase",[1],induced the expression
"CCOC(=O)c1ccc(O)c(O)c1 [ethyl-3,4 dihydroxybenzoate]",induction of HIF protein,[2],induce HIF protein
same,"expression of GLUT1, heme oxygenase and nitric oxide synthase",[1],induced the expression
N[C@@H](Cn1ccc(=O)c(O)c1)C(=O)O [L-mimosine],induction of HIF protein,[2],induce HIF protein
same,HIF protein expression in the kidney,HIF protein,induced HIF protein expression
